Columns and labels:
LOX IMVI = assay: NCI-60 one-dose screen, LOX IMVI; assay type: cell-based; details: Homo sapiens, melanoma, single dose 10 μM, read-out: Growth inhibition %
Procedure: (§1) Anti-proliferative effects of the counterparts 4a–g and 5a–g were screened against 60 human cancer cell lines, following the Developmental Therapeutics Program protocol, National Cancer Institute[35].
(§2) The anti-tumour activity of the fourteen synthesised congeners was investigated at the NCI against a panel of 60 cancer cell lines (NCI-60 Cell One-Dose Screen). The tested dibenzo[b,f]azepine derivatives were screened at a single dose level (10 μM), Table 1.

EKVX = assay: NCI-60 one-dose screen, EKVX; assay type: cell-based; details: Homo sapiens, non-small cell lung cancer, single dose 10 μM, read-out: Growth inhibition %
Procedure: as §1, §2

A498 = assay: NCI-60 one-dose screen, A498; assay type: cell-based; details: Homo sapiens; A498, renal cancer; single dose 10 μM; read-out: Growth inhibition %
Procedure: as §1, §2

MDA-MB-468 = assay: NCI-60 one-dose screen, MDA-MB-468; assay type: cell-based; details: Homo sapiens; MDA-MB-468, breast cancer; single dose 10 μM; read-out: Growth inhibition %
Procedure: as §1, §2

OVCAR-8 = assay: NCI-60 one-dose screen, OVCAR-8; assay type: cell-based; details: Homo sapiens; OVCAR-8, ovarian cancer; single dose 10 μM; read-out: Growth inhibition %
Procedure: as §1, §2

UACC-257 = assay: NCI-60 one-dose screen, UACC-257; assay type: cell-based; details: Homo sapiens; UACC-257, melanoma; single dose 10 μM; read-out: Growth inhibition %
Procedure: as §1, §2

NCI-H460 = assay: NCI-60 one-dose screen, NCI-H460; assay type: cell-based; details: Homo sapiens; NCI-H460, non-small cell lung cancer; single dose 10 μM; read-out: Growth inhibition %
Procedure: as §1, §2

HL-60(TB) = assay: NCI-60 one-dose screen, HL-60(TB); assay type: cell-based; details: Homo sapiens, leukaemia, single dose 10 μM, read-out: Growth inhibition %
Procedure: as §1, §2

M14 = assay: NCI-60 one-dose screen, M14; assay type: cell-based; details: Homo sapiens; M14, melanoma; single dose 10 μM; read-out: Growth inhibition %
Procedure: as §1, §2

HS 578 T = assay: NCI-60 one-dose screen, HS 578 T; assay type: cell-based; details: Homo sapiens, breast cancer, single dose 10 μM, read-out: Growth inhibition %
Procedure: as §1, §2

NCI-H522 = assay: NCI-60 one-dose screen, NCI-H522; assay type: cell-based; details: Homo sapiens; NCI-H522, non-small cell lung cancer; single dose 10 μM; read-out: Growth inhibition %
Procedure: as §1, §2

RXF 393 = assay: NCI-60 one-dose screen, RXF 393; assay type: cell-based; details: Homo sapiens; RXF 393, renal cancer; single dose 10 μM; read-out: Growth inhibition %
Procedure: as §1, §2

T-47D = assay: NCI-60 one-dose screen, T-47D; assay type: cell-based; details: Homo sapiens, T47D, breast cancer, single dose 10 μM, read-out: Growth inhibition %
Procedure: as §1, §2

HOP-92 = assay: NCI-60 one-dose screen, HOP-92; assay type: cell-based; details: Homo sapiens; HOP-92, non-small cell lung cancer; single dose 10 μM; read-out: Growth inhibition %
Procedure: as §1, §2

HOP-62 = assay: NCI-60 one-dose screen, HOP-62; assay type: cell-based; details: Homo sapiens; HOP-62, non-small cell lung cancer; single dose 10 μM; read-out: Growth inhibition %
Procedure: as §1, §2

SN12C = assay: NCI-60 one-dose screen, SN12C; assay type: cell-based; details: Homo sapiens, renal cancer, single dose 10 μM, read-out: Growth inhibition %
Procedure: as §1, §2

U251 = assay: NCI-60 one-dose screen, U251; assay type: cell-based; details: Homo sapiens, U-251; U251, CNS cancer; single dose 10 μM; read-out: Growth inhibition %
Procedure: as §1, §2

UACC-62 = assay: NCI-60 one-dose screen, UACC-62; assay type: cell-based; details: Homo sapiens; UACC-62, melanoma; single dose 10 μM; read-out: Growth inhibition %
Procedure: as §1, §2

PC-3 = assay: NCI-60 one-dose screen, PC-3; assay type: cell-based; details: Homo sapiens; PC-3, prostate cancer; single dose 10 μM; read-out: Growth inhibition %
Procedure: as §1, §2

K-562 = assay: NCI-60 one-dose screen, K-562; assay type: cell-based; details: Homo sapiens, K562; K-562, leukaemia; single dose 10 μM; read-out: Growth inhibition %
Procedure: as §1, §2

SF-295 = assay: NCI-60 one-dose screen, SF-295; assay type: cell-based; details: Homo sapiens; SF-295, CNS cancer; single dose 10 μM; read-out: Growth inhibition %
Procedure: as §1, §2

MDA-MB-231-ATCC = assay: NCI-60 one-dose screen, MDA-MB-231-ATCC; assay type: cell-based; details: Homo sapiens, breast cancer, single dose 10 μM, read-out: Growth inhibition %
Procedure: as §1, §2

CCRF-CEM = assay: NCI-60 one-dose screen, CCRF-CEM; assay type: cell-based; details: Homo sapiens, leukaemia, single dose 10 μM, read-out: Growth inhibition %
Procedure: as §1, §2

OVCAR-5 = assay: NCI-60 one-dose screen, OVCAR-5; assay type: cell-based; details: Homo sapiens; OVCAR-5, ovarian cancer; single dose 10 μM; read-out: Growth inhibition %
Procedure: as §1, §2

HCT-15 = assay: NCI-60 one-dose screen, HCT-15; assay type: cell-based; details: Homo sapiens; HCT-15, colon cancer; single dose 10 μM; read-out: Growth inhibition %
Procedure: as §1, §2

ACHN = assay: NCI-60 one-dose screen, ACHN; assay type: cell-based; details: Homo sapiens, renal cancer, single dose 10 μM, read-out: Growth inhibition %
Procedure: as §1, §2

NCI-H322M = assay: NCI-60 one-dose screen, NCI-H322M; assay type: cell-based; details: Homo sapiens, non-small cell lung cancer, single dose 10 μM, read-out: Growth inhibition %
Procedure: as §1, §2

MOLT-4 = assay: NCI-60 one-dose screen, MOLT-4; assay type: cell-based; details: Homo sapiens; MOLT-4, leukaemia; single dose 10 μM; read-out: Growth inhibition %
Procedure: as §1, §2

786-0 = assay: NCI-60 one-dose screen, 786-0; assay type: cell-based; details: Homo sapiens; 786-0, renal cancer; single dose 10 μM; read-out: Growth inhibition %
Procedure: as §1, §2

SK-MEL-5 = assay: NCI-60 one-dose screen, SK-MEL-5; assay type: cell-based; details: Homo sapiens; SK-MEL-5, melanoma; single dose 10 μM; read-out: Growth inhibition %
Procedure: as §1, §2

SF-539 = assay: NCI-60 one-dose screen, SF-539; assay type: cell-based; details: Homo sapiens; SF-539, CNS cancer; single dose 10 μM; read-out: Growth inhibition %
Procedure: as §1, §2

COLO 205 = assay: NCI-60 one-dose screen, COLO 205; assay type: cell-based; details: Homo sapiens; COLO 205, colon cancer; single dose 10 μM; read-out: Growth inhibition %
Procedure: as §1, §2

NCI-H23 = assay: NCI-60 one-dose screen, NCI-H23; assay type: cell-based; details: Homo sapiens; NCI-H23, non-small cell lung cancer; single dose 10 μM; read-out: Growth inhibition %
Procedure: as §1, §2

MCF-7 = assay: NCI-60 one-dose screen, MCF-7; assay type: cell-based; details: Homo sapiens, MCF7; MCF-7, breast cancer; single dose 10 μM; read-out: Growth inhibition %
Procedure: as §1, §2

Row | Structure (SMILES) | inhibition at 10 µM (LOX IMVI) [%] | inhibition at 10 µM (EKVX) [%] | inhibition at 10 µM (A498) [%] | inhibition at 10 µM (MDA-MB-468) [%] | inhibition at 10 µM (OVCAR-8) [%] | melting point [°C] | inhibition at 10 µM (UACC-257) [%] | inhibition at 10 µM (NCI-H460) [%] | inhibition at 10 µM (HL-60(TB)) [%] | inhibition at 10 µM (M14) [%] | inhibition at 10 µM (HS 578 T) [%] | inhibition at 10 µM (NCI-H522) [%] | inhibition at 10 µM (RXF 393) [%] | inhibition at 10 µM (T-47D) [%] | inhibition at 10 µM (HOP-92) [%] | inhibition at 10 µM (HOP-62) [%] | inhibition at 10 µM (SN12C) [%] | inhibition at 10 µM (UACC-62) [%] | inhibition at 10 µM (PC-3) [%] | inhibition at 10 µM (K-562) [%] | further results
1 | C1=Cc2ccccc2N(c2nnc(-c3ccccc3)o2)c2ccccc21 [Compound 5a, 2-(5 h-Dibenzo[b,f]azepin-5-yl)-5-phenyl-1,3,4-oxadiazole] | < 10 | < 10 | < 10 | 26.1 | < 10 | 209 to 211 | 13.6 | < 10 | 13.2 | 12.1 | < 10 | < 10 | < 10 | < 10 | 18.3 | 15.3 | < 10 | < 10 | < 10 | 32.2 | inhibition at 10 µM (U251): 20.1%; inhibition at 10 µM (SF-295): < 10%; inhibition at 10 µM (MDA-MB-231-ATCC): < 10%; inhibition at 10 µM (CCRF-CEM): 26.1%; inhibition at 10 µM (OVCAR-5): < 10%; inhibition at 10 µM (HCT-15): < 10%; inhibition at 10 µM (ACHN): 16.7%; inhibition at 10 µM (NCI-H322M): 50.2%; inhibition at 10 µM (MOLT-4): 16.5%; inhibition at 10 µM (786-0): 20%; inhibition at 10 µM (SK-MEL-5): < 10%; inhibition at 10 µM (SF-539): < 10%; inhibition at 10 µM (COLO 205): < 10%; inhibition at 10 µM (NCI-H23): < 10%; inhibition at 10 µM (MCF-7): 14.4%
2 | C1=Cc2ccccc2N(c2nnc(Cc3ccccc3)o2)c2ccccc21 [Compound 5g, 2-Benzyl-5-(5H-dibenzo[b,f]azepin-5-yl)-1,3,4-oxadiazole] | < 10 | 2.24 | < 10 | 15.6 | 16.5 | 189 to 191 | 19.1 | 17.4 | 10.6 | < 10 | 24.1 | < 10 | < 10 | 12 | < 10 | 18.4 | < 10 | 10.8 | < 10 | 14.9 | inhibition at 10 µM (U251): 10.1%; inhibition at 10 µM (SF-295): < 10%; inhibition at 10 µM (MDA-MB-231-ATCC): < 10%; inhibition at 10 µM (CCRF-CEM): 15.6%; inhibition at 10 µM (OVCAR-5): < 10%; inhibition at 10 µM (HCT-15): 4.03%; inhibition at 10 µM (ACHN): 27.7%; inhibition at 10 µM (NCI-H322M): < 10%; inhibition at 10 µM (MOLT-4): 10.9%; inhibition at 10 µM (786-0): 18.8%; inhibition at 10 µM (SK-MEL-5): < 10%; inhibition at 10 µM (SF-539): 11.5%; inhibition at 10 µM (COLO 205): < 10%; inhibition at 10 µM (NCI-H23): < 10%; inhibition at 10 µM (MCF-7): < 10%
3 | O=[N+]([O-])c1ccc(-c2nnc(N3c4ccccc4C=Cc4ccccc43)o2)cc1 [Compound 5e, 2-(5 h-Dibenzo[b,f]azepin-5-yl)-5–(4-nitrophenyl)-1,3,4-oxadiazole] | < 10 | < 10 | 14.8 | 11.4 | 1.15 | 146 to 148 | < 10 | 1.84 | 30.1 | < 10 | < 10 | 15 | < 10 | 18.4 | 22.8 | < 10 | < 10 | 30 | 24.6 | 25.3 | inhibition at 10 µM (SF-295): < 10%; inhibition at 10 µM (MDA-MB-231-ATCC): 15.3%; inhibition at 10 µM (CCRF-CEM): < 10%; inhibition at 10 µM (OVCAR-5): < 10%; inhibition at 10 µM (HCT-15): 30.7%; inhibition at 10 µM (ACHN): < 10%; inhibition at 10 µM (NCI-H322M): 4.97%; inhibition at 10 µM (MOLT-4): 19.4%; inhibition at 10 µM (786-0): < 10%; inhibition at 10 µM (SK-MEL-5): 13.7%; inhibition at 10 µM (SF-539): < 10%; inhibition at 10 µM (COLO 205): < 10%; inhibition at 10 µM (NCI-H23): < 10%; inhibition at 10 µM (MCF-7): 17.4%
